This is an account of results in PubChem BioAssay AID624395 (The Scripps Research Institute Molecular Screening Center, 2012).

The structures appear in SMILES notation. Activity calls are given as the source filed them. The rule behind the calls is not given here. Bounds are passed on as bounds.

For orientation: IC50 means the midpoint of a concentration-inhibition curve.

In the experiment the test system is cell-based VP16 transactivation luciferase luminescence. Description: compounds lowering VP16-driven reporter luminescence – cell-based, counter-screen for NR2E3 agonist project, dose response (AID 624395). (Counterscreens check selectivity or assay interference.)
As to `CC(C)(C)Nc1nc(-c2ccccn2)nc2ccccc12`, the IC50 was 4.08 µM. For the compound `Nc1nc(-c2ccccn2)nc(N)c1Cc1c(F)cccc1Cl`, the IC50 is 2.69 µM.

For `O=S(=O)(/C=C/C=C/S(=O)(=O)c1ccccc1)c1ccccc1`, the IC50 is 11.7 µM (inactive).

In the case of `Cc1ccc(S(=O)(=O)N2[C@@H](c3ccc(Cl)cc3)C(C(=O)O)=CC[C@H]2c2ccc(C(C)C)cc2)cc1`, the IC50 is 7.56 µM. Consider `CCC(=O)N1CCCc2cc(S(=O)(=O)N3CCN(c4ccccn4)CC3)ccc21`, for which the IC50 is 22.5 µM (inactive). With `CC(Oc1ccc(Br)cc1)c1nc2c3ccccc3nc(=S)n2[nH]1` (configuration not stated) the figure was 4.33 µM; with `O=[N+]([O-])c1cc(C(F)(F)F)cc([N+](=O)[O-])c1NCCNC(=S)Nc1ccc(Cl)c(Cl)c1`, 11.5 µM (inactive); with `COCc1nnc(NC(=O)c2ccc(S(=O)(=O)N(CC(C)C)CC(C)C)cc2)o1`, 6.62 µM. In the case of `O=C(OC12CC3CC(CC(C3)C1)C2)c1ccc(NCc2cc(O)ccc2O)cc1` it was 11.6 µM (inactive); in that of `O=C(CSc1nnnn1-c1ccc(O)cc1)Nc1ccc(N2CCOCC2)c(Cl)c1`, 4.47 µM.

For the compound `O=S(=O)(NC1CCCC1)c1ccc(S(=O)(=O)N2CCc3ccccc32)cc1`, the IC50 is 4.59 µM.

In the case of `O=S(=O)(/C(=C\c1ccc(C(F)(F)F)cc1)c1nc2ccccc2[nH]1)c1ccccc1`, the IC50 is 10.8 µM (inactive). Turning to `CC(C)(C)c1ccc(CSc2nc(N)cc(=O)[nH]2)cc1`, the IC50 is 4.53 µM. With `O=C(C1CC1)N1CCc2cc(Br)cc(S(=O)(=O)N3CCN(c4ccccn4)CC3)c21` the figure was > 39.8 µM (inactive); with `COc1cccc(NC(=O)CSc2nc3ncc(Br)cc3[nH]2)c1`, > 39.8 µM (inactive).

Regarding `CNC(=S)/N=C/NOCc1ccc(Cl)cc1Cl`, the IC50 is 5.03 µM. In the case of `CCCCC[C@@H]1C=C(C(=O)O)[C@H](c2ccc(Cl)c(Cl)c2)N1S(=O)(=O)c1ccc(C)cc1`, the IC50 was 8.77 µM.

Take `Cc1nc2ccc(S(=O)(=O)Nc3cccc(-c4nc5cccnc5s4)c3)cc2s1`: the IC50 was 7.12 µM. With `S=C(NN=Cc1ccccn1)Nc1ccccn1` the figure was 4.44 µM; with `O=c1cc(N2CCN(c3ccccc3)CC2)[nH]c(=O)n1C1CCCCC1`, > 39.8 µM (inactive). Regarding `CC(C)c1ccc(C(c2c(O)c3ccccc3oc2=O)c2c(O)c3ccccc3oc2=O)cc1`, the IC50 is 10.3 µM (inactive). For `O=[N+]([O-])c1cc(CN2CCN(c3ccccc3)CC2)c(O)c2ncccc12`, the IC50 is > 39.8 µM (inactive). On to `Cc1ccnc(NC(=O)Cc2ccc(-c3ccccc3)cc2)c1`, for which the IC50 was > 39.8 µM (inactive). Regarding `COc1ccc2c(c1)/C(=C/c1cnc[nH]1)C(=O)N2`, the IC50 is 12.7 µM (inactive).

Take `CCC(=O)NC(c1cccs1)c1cc([N+](=O)[O-])c2cccnc2c1O` (configuration not stated): the IC50 was 3.89 µM. With `Cc1ccnc(NC(=O)CCCOc2cc(=O)n(C)c3ccccc23)c1` the figure was 8.23 µM; with `Cc1cnc(NC(=O)C2CC(=O)N(c3ccc4c(c3)OCCO4)C2)s1` (configuration not stated), > 39.8 µM (inactive); with `CC(C(=O)N1CCN(c2ccc(Cl)cc2)CC1)c1ncc(C(F)(F)F)cc1Cl` (configuration not stated), 7.28 µM. With `O=C1C=CC2(O[C@H](c3ccccc3)[C@@H](c3ccccc3)O2)[C@H](Sc2ccccc2O)C1` the figure was 4.89 µM; with `CCOP(=O)(CCP(=O)(OCC)OCC)OCC.C[CH2][Sn]([Cl])([Cl])[CH2]C`, 10.9 µM (inactive). In the case of `O=C(Nc1ccc(Cn2cccn2)cc1)c1ccc(COc2ccccc2Br)cc1` it was > 39.8 µM (inactive). Take `OC[C@@H]1CN(Cc2ccc(-c3ccccc3)cc2)C[C@H](n2cnc3c(NCc4ccncc4)ncnc32)O1`: the IC50 was 4.44 µM.

In the case of `Cc1nc(NC(=O)c2c(-c3ccccc3Cl)noc2C)sc1C`, the IC50 is > 39.8 µM (inactive). For the compound `CC1CC(C)C(=NNC(N)=O)C(C(O)CC2CCC(=O)NC2=O)C1` (configuration not stated), the half-maximal inhibitory concentration (IC50) was 4.07 µM. `Cc1onc(-c2ccccc2Cl)c1C(=O)Nc1nc2c(s1)CCCC2`: the IC50 was > 39.8 µM (inactive).

Consider `Cc1ccnc(NC(=O)C2CCN(S(=O)(=O)c3c(C)c(C)cc(C)c3C)CC2)c1`, for which the IC50 is 13.2 µM (inactive). Consider `Nc1nc(-c2ccccn2)nc(N)c1Cc1ccc(Cl)cc1Cl`, for which the IC50 is 4.59 µM. With `CC(=O)Nc1ccc(Sc2ccc([N+](=O)[O-])o2)cc1` the figure was 18.3 µM (inactive).

As for `O=C(OCCOc1ccc(Cl)cc1)c1cc(S(=O)(=O)N2CCCCC2)ccc1N1CCOCC1`, the IC50 is 8.66 µM. Consider `NS(=O)(=O)c1ccc(CCNc2nn3c(-c4cccc(OC(F)(F)F)c4)cnc3s2)cc1`, for which the half-inhibitory concentration (IC50) was 4.66 µM. Regarding `Cc1cccc(NS(=O)(=O)c2ccc(-c3cnc(C4CC4)o3)cc2)c1C`, the IC50 is 5.28 µM. In the case of `O=C1c2ccccc2C(=O)c2[nH]c(=O)[nH]c21`, the IC50 is 4.74 µM.

Regarding `Cc1sc2ncnc(NCC(O)c3ccccc3)c2c1C` (configuration not stated), the concentration for half-maximal inhibition (IC50) is 4.74 µM. On to `Cc1cnc(NC(=O)CN2CCN(c3ccccn3)CC2)s1`, for which the IC50 was 9.56 µM. With `C=CCn1c(C)cc(C(=O)COc2ccc(C)nc2[N+](=O)[O-])c1C` the figure was 0.946 µM. Consider `CC(C)c1ccc(/C=C(\c2nc3ccccc3[nH]2)S(=O)(=O)c2ccccc2)cc1`, for which the IC50 was 13.2 µM (inactive). In the case of `COc1ccc(C(=O)c2c(C(F)(F)F)oc3c2C(=O)c2ccccc2C3=O)cc1OC` it was 1.68 µM; in that of `O=[N+]([O-])c1ccc(NC(=S)NCCc2ccc(F)cc2)cc1`, 5.02 µM; in that of `CC(C)(C)C(=O)Nc1cc2nn(-c3ccccc3)nc2cc1Cl`, 0.00479 µM. For the compound `FC(F)Sc1ccc(NC(=S)N2CCN(c3ccccn3)CC2)cc1`, the IC50 is 4.15 µM.

In the case of `Cc1ccc(S(=O)(=O)c2ccc([N+](=O)[O-])o2)cc1`, the IC50 is 6.32 µM.

Consider `Cc1cccc(Cc2cnc(N3C(=N)SC(C)C3=O)s2)c1` (configuration not stated), for which the IC50 was 4.96 µM. Consider `O=C1N/C(=C\c2ccc(O)cc2)C(O)=C1C=NCc1ccccc1`, for which the IC50 is > 39.8 µM (inactive). In the case of `COc1cc2c(O)c3c(c(-c4ccc5c(c4)OCO5)c2cc1OC)C(=O)OC3` it was 2.3 µM; in that of `Cc1ccc(OCCOC(=O)c2cc(S(=O)(=O)N3CCCCC3)ccc2N2CCOCC2)cc1`, 8.95 µM. In the case of `CCOC(=O)Cc1nnc2c(Nc3ccccc3F)nc3nonc3n12` it was 4.03 µM. In the case of `COc1ccc(-n2c(C)cc(C(=O)COC(=O)c3ccc(O)cc3O)c2C)cc1`, the concentration for half-maximal inhibition (IC50) is 4.48 µM. With `NC(=O)c1nn(-c2ccccc2)nc1NC(=O)CSc1nnnn1-c1ccc(Cl)cc1` the figure was > 39.8 µM (inactive); with `COc1cccc(N2CCN(c3nc(-c4ccccc4C)cc(=O)[nH]3)CC2)c1`, 4.57 µM; with `COc1ccc(OC)c(NC(=O)CSc2nnnn2-c2ccc3c(c2)OCO3)c1`, 3.36 µM. With `N=C1SCC(=O)N1c1ncc(Cc2cccc(Cl)c2)s1` the figure was 4.78 µM; with `c1coc(CNc2ncnc3ccccc23)c1`, 4.45 µM.

In the case of `CCCCOc1ccc(CONS(=O)(=O)c2ccc(NC(C)=O)cc2)cc1Cl`, the IC50 was 4.03 µM. With `O=c1c(Cl)c(N2CCN(c3ccc(F)cc3)CC2)cnn1C12CC3CC(CC(C3)C1)C2` the figure was 38.2 µM (inactive). Consider `C[C@H]1CCC/C=C/[C@@H]2C[C@H](O)C[C@H]2[C@H](O)[C@H](S(=O)c2ccc(O)cc2)CC(=O)O1` (some centres not stated), for which the IC50 was 3.52 µM. In the case of `c1ccc(C(Cc2nc(-c3ccncc3)no2)c2ccccc2)cc1` it was 4.37 µM; in that of `Cc1cccc(C)c1OCc1cc(C(=O)N2CCC(c3ccncc3)CC2)no1`, 2.08 µM; in that of `O=C(CN1C(=O)C(c2ccc(F)cc2)=NC12CCCC2)Nc1ccc(F)cc1`, 4.48 µM.

Turning to `CCC(Sc1nc(C)cc(=O)[nH]1)C(=O)Nc1sc2c(c1C#N)CCCC2` (configuration not stated), the IC50 was 5.06 µM. With `O=C(Nc1nnc(-c2cccs2)o1)c1cc(-c2ccccc2)nc2ccccc12` the figure was 3.45 µM; with `CCC(C)Nc1nc(-c2ccccn2)nc2ccccc12` (configuration not stated), 3.93 µM; with `O=c1cc(N2CCN(c3cccc(Cl)c3)CC2)[nH]c(=O)n1C1CCCCC1`, > 39.8 µM (inactive).

For the compound `O=C(CSc1nnnn1-c1ccccc1)Nc1nsc(-c2ccc(Cl)cc2)n1`, the IC50 was 0.833 µM. In the case of `Cc1ccnc(NC(=O)CSc2cc(=O)n(C)c3ccccc23)c1` it was 11 µM (inactive); in that of `Cc1cc2sc3ccc(C#CC4(O)CCCCC4)cc3c(=O)c2cc1C`, 0.00878 µM. As to `COc1cnc(-c2ccccn2)nc1Sc1ccccc1Cl`, the IC50 was 4.92 µM. With `Cc1ccc(S(=O)(=O)N2[C@@H](c3ccc(Br)cc3)C(C(=O)O)=CC[C@H]2c2ccc(Cl)c(Cl)c2)cc1` the figure was 7.28 µM; with `c1ccc(CNc2ncnc3sccc23)cc1`, 4.71 µM; with `Nc1nc(N)nc(-c2cc(O)ccc2O)n1`, 1.09 µM. Regarding `CC(C)c1cc2c(c(O)c1O)[C@@]13CCCC(C)(C)C1CC2OC3=O` (some centres not stated), the IC50 was > 39.9 µM (inactive). As for `CCc1nnc(NC(=O)c2ccc(S(=O)(=O)N3CCCc4ccccc43)cc2)o1`, the IC50 was 6.8 µM. For `Cc1ccc(Cc2cnc(N3C(=N)SC(C)C3=O)s2)cc1` (configuration not stated), the IC50 is 4.37 µM. Regarding `COc1ccccc1-n1c(=O)oc2ccc(Cl)cc2c1=O`, the IC50 was 7.67 µM.

On to `N#Cc1c(-c2ccccc2)cc(-c2ccccc2)nc1SCCC(=O)O`, for which the IC50 was 31.5 µM (inactive). As to `COc1ccc(CNC(=O)c2c(C)oc3c2C(=O)c2ccccc2C3=O)cc1`, the IC50 was 1.18 µM.

As for `Cc1noc(C)c1S(=O)(=O)Nc1ccc(C(=O)N2CCN(c3ccc(Cl)cc3)CC2)cc1`, the IC50 is 7.09 µM. For `O=[N+]([O-])c1ccc(NS(=O)(=O)c2ccccc2)c(Cl)c1`, the IC50 was 4.38 µM. With `CSC(=Nc1ccccc1)N=C(SCc1ccccc1)N(C)C` the figure was 4.06 µM; with `COc1cnc(-c2ccccn2)nc1N(C)c1ccccc1`, 5.76 µM. As for `CCOC(=O)N1CCN(C(=O)c2ccc(S(=O)(=O)Nc3ccc(C)cc3)cc2)CC1`, the IC50 is 8.62 µM.

For the compound `O=C1/C(=C\c2ccc([N+](=O)[O-])cc2)CS(=O)(=O)C/C1=C/c1ccc([N+](=O)[O-])cc1`, the IC50 is 4.12 µM.

Regarding `COc1cc(OC)nc(-n2ncc(Br)c(Br)c2=O)n1`, the IC50 is 4.91 µM.
